Source: US7037942B2, “Amide compounds for the potentiation of cholinergic activity” (Astellas Pharma Inc., priority 1999, dated 2006)

Test system: penile erection
Experiment: Penile erection in rat
Assay type: in vivo
Details: male Fischer 344 rats, intraperitoneal, observed 60 minutes, mean number
Description: (This test was carried out according to a similar manner to that described in Jpn. J. Pharmacol., Vol. 64, 147–153 (1994))
Male Fischer 344 rats at the age of 8 weeks (n=7) were used. All rats were handled 3 minutes a day for three successive days before the tests. The rats were tested in groups of seven and various doses of the test compound were given in semi-randomized order. The test compounds were suspended in 0.5% methyl-cellulose immediately before use, and given intraperitoneally in a volume of 1 ml/kg just before the start of test. […] A mirror was situated behind each box […]. Data was expressed as a mean number.

Compound | Penile Erection (Number/hr) (dose 0.1 mg/kg) | Penile Erection (Number/hr) (dose 0.32 mg/kg)
CC1=CCC(NC(=O)c2ccncc2)CC1 (stereo not shown) [Example 7, 1-(pyridin-4-ylcarbonylamino)-4-methylcyclohex-3-ene] | 0.71 | –
O=C(Nc1ccc(F)cc1)N1CC=CCC1 [Example 2, 1-(4-fluorophenylcarbamoyl)-1,2,3,6-tetrahydropyridine] | – | 0.57
O=C(NC1CCc2ccccc2C1)c1ccc(F)cc1 (stereo not shown) [Example 6, 2-(4-Fluorobenzoylamino)-1,2,3,4-tetrahydronaphthalene] | – | 0.60
O=C(NC1CCc2ccccc2C1)c1ccncc1 (stereo not shown) [Example 8, 2-(Pyridin-4-ylcarbonylamino)-1,2,3,4-tetrahydro-naphthalene] | 0.60 | –
